{
  "source": "patent US20260102484A1",
  "about": "“ADJUVANTS FOR ENHANCING THE IMMUNE RESPONSE” (priority 2022, published 2026)",
  "key": {"[1]": {"tested_on": "antigen-specific (RBD peptide #9) Proliferative T cell response", "parameters": "species or system Mice", "settings": "mouse, in vivo"}, "[2]": {"tested_on": "cytokine response to RBD Peptide #9 (IL6, IFNg, TNF, IL17, IL 10)", "parameters": "species or system Mice", "settings": "mouse, in vivo"}, "splenic T cells": {"tested_on": "splenic T cells", "experiment": "Recall response of splenic T cells to peptide #5-palmitic acid, CTFR proliferation dye and FACS", "format": "in vivo, Mice", "settings": "immunized subcutaneously with peptide #5-palmitic acid CFA + 10 ug; 14 days later; FIG. 7", "protocol": "Mice were now immunized with peptide 5 and T cells analyzed for proliferation and by FACS analysis. (FIG. 7) Mice were immunized subcutaneously with peptide #5-palmitic acid CFA mixture with and without 10 ug of 1,4-DPCA. 14 days later, splenic T cells were isolated and co-cultured with irradiated feeders in a ratio of 400k:100k to assess recall responses to peptide #5-palmitic acid. T cells from unimmunized mice were used as control. Only T cells were stained with CTFR proliferation dye in order to ensure detection of specific T cell responses.\nIn upper FIG. 7 is the FACS flow cytometry plot, where the labelled cells are T cells. […] Below this, is the analyzed proliferation data, where the yellow line is immunized+10 ug of DPCA was given to mice, the grey line is immunized only, the orange line is control, unimmunized but stimulated in culture, and the blue line is control, unstimulated in culture."}, "[3]": {"tested_on": "myeloid (GR1+CD11b+) cells and lymphoid (CD8+) cells", "experiment": "FACS analysis of myeloid and lymphoid cells at higher DPCA doses", "format": "in vivo, mice", "protocol": "To explore what is happening at higher DPCA doses and why they may be inhibitory, we tested the effects of different concentrations of DPCA on myeloid (GR1+CD11b+) cells and lymphoid (CD8+) cells. […] Also, the number of GR1+CD11b+myeloid cells is much higher. Within this population of myeloid cells are cells that can suppress T cells.\nAdditionally, cells were immunized with 50 ug of DPCA and compared to an untreated control. The number of cell in each was determined by FACS analysis. […] (See upper panels showing scatter plots with an increased number of cells in treated cells). An analysis of myeloid cell markers GR1 and CD11b was determined in the control and DPCA treated cells. […] (See lower panels)"}, "[4]": {"tested_on": "Naïve, central memory, and effector T cells (CD4 and CD8)", "experiment": "Numbers of naive, central memory and effector memory T cells from lymph nodes and spleen", "format": "in vivo", "settings": "peptide 9 and 10 ug or 25 ug of DPCA, FIG. 6", "protocol": "Next, three populations of T cells (Naïve, central memory, and effector T cells) from lymph nodes and spleens were treated with peptide 9 and 10 ug of DPCA or 25 ug of DPCA. An untreated control group and a control group treated with PBS were also tested."}},
  "data": [
    {"smiles": "O=C(O)c1c[nH]c2c(ccc3cccnc32)c1=O", "note": "[1,4-DPCA, 1,4-dihydrophenonthrolin-4-one-3-carboxylic acid]", "values": [
      {"measurement": "antigen-specific (RBD peptide #9) Proliferative T cell response", "setting": "[1]", "value": "enhances"},
      {"measurement": "IFNg response", "setting": "[2]", "value": "most dramatically affected"},
      {"measurement": "cytokine response (IL6, IFNg, TNF, IL17, and IL 10)", "setting": "[2]", "value": "dose-dependent"},
      {"measurement": "T cell proliferation (FACS flow cytometry plot)", "setting": "splenic T cells", "value": "increased proliferation"},
      {"measurement": "number of large cells (FACS scatter plots)", "setting": "[3]; 50 ug of DPCA vs untreated control, FIG. 5", "value": "increase number of large cells"},
      {"measurement": "myeloid cell markers GR1 and CD11b", "setting": "[3]; DPCA treated vs untreated control, FIG. 5 lower panels", "value": "large population of myeloid cells"},
      {"measurement": "relationship between lymphoid and myeloid cells", "setting": "[3]; higher DPCA dosage, FIG. 4", "value": "Inverse relationship"},
      {"measurement": "number of CD8+T cells", "setting": "[3]; higher DPCA doses, FIG. 4", "value": "reduced"},
      {"measurement": "number of GR1+CD11b+myeloid cells", "setting": "[3]; higher DPCA doses, FIG. 4", "value": "much higher"},
      {"measurement": "numbers of memory cells (CD4 and CD8)", "setting": "[4]", "value": "increased numbers"},
      {"measurement": "numbers of naïve cells (CD4 and CD8)", "setting": "[4]", "value": "lower numbers"}
    ]}
  ]
}
